# Experimental data published in ChEMBL document CHEMBL3407463 (Eur J Med Chem, 2014).
# Active and inactive are the calls of the source. The calls are words filed in the database; no cut-off is given here.
# Experiments:
# MCF7 [1] = assay: Cytotoxicity against human placental microsome aromatase expressing human MCF7 cells after 2 to 6 days by MTT assay in presence of testosterone; type: functional, cell-based
# MCF7 [2] = assay: Cytotoxicity against human placental microsome aromatase expressing human MCF7 cells assessed as reduction in cell viability at 1 to 2.5 uM after 2 days by MTT assay in presence of testosterone; type: functional
# MCF7 [3] = assay: Cytotoxicity against human placental microsome aromatase expressing human MCF7 cells assessed as reduction in cell viability up to 15 uM after 3 to 6 days by MTT assay in presence of estradiol; type: functional, cell-based
# MCF7 [4] = assay: Cytotoxicity against human placental microsome aromatase expressing human MCF7 cells assessed as reduction in cell viability up to 15 uM after 3 to 6 days by MTT assay in presence of testosterone; type: functional, cell-based
# MCF7 [5] = assay: Cytotoxicity against human placental microsome aromatase expressing human MCF7 cells at 1 to 15 uM after 2 to 6 days by LDH assay in presence of testosterone; type: functional, cell-based
# MCF7 [6] = assay: Cytotoxicity against human placental microsome aromatase expressing human MCF7 cells assessed as reduction in cell viability at 5 to 15 uM after 2 days by MTT assay in presence of testosterone; type: functional, cell-based
# MCF7 [7] = assay: Cytotoxicity against human placental microsome aromatase expressing human MCF7 cells at 1 to 15 uM by MTT assay in presence of testosterone; type: functional, cell-based; details: TDE = time-dependent effect
# Aromatase [8] = biological target: T1, Aromatase (Homo sapiens, UniProt P11511); assay: Inhibition of human placental microsome aromatase using [1beta-3H] androstenedione as substrate at 2 uM after 15 mins by liquid scintillation counting; details: 0.25 h
# T1 sequence (P11511 whole entry): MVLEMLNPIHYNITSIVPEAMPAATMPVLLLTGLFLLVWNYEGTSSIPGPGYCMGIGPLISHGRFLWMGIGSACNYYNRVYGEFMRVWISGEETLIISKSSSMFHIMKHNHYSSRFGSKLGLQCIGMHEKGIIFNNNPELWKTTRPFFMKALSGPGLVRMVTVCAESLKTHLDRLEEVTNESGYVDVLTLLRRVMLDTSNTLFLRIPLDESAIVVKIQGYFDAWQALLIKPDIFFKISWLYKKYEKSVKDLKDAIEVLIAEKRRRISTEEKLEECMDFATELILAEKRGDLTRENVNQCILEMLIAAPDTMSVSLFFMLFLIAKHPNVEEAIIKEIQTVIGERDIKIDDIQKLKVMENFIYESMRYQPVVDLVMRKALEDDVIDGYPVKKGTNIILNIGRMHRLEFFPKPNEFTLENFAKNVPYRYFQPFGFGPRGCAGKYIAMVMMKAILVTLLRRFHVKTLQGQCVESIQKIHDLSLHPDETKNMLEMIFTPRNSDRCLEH
# MCF7 [9] = assay: Cytotoxicity against human placental microsome aromatase expressing human MCF7 cells assessed as reduction in cell viability up to 5 uM after 3 to 6 days by MTT assay in presence of estradiol; type: functional, cell-based
# MCF7 [10] = assay: Cytotoxicity against human placental microsome aromatase expressing human MCF7 cells at 5 to 15 uM after 2 to 3 days by LDH assay in presence of testosterone; type: functional, cell-based
# MCF7 [11] = assay: Cytotoxicity against human placental microsome aromatase expressing human MCF7 cells at 0.01 to 15 uM by MTT assay in presence of testosterone; type: functional, cell-based; details: TDE = time-dependent effect
# Aromatase [12] = biological target: T1, Aromatase; assay: Inhibition of human placental microsome aromatase using [1beta-3H] androstenedione as substrate after 15 mins by liquid scintillation counting
# Aromatase [13] = biological target: T1, Aromatase; assay: Inhibition of human […] aromatase expressed in human MCF7 cells using [1beta-3H] androstenedione as substrate at 10 uM after 1 hr by liquid scintillation counting; type: cell-based
# Aromatase [14] = biological target: T1, Aromatase; assay: Inhibition of human […] aromatase expressed in human MCF7 cells using [1beta-3H] androstenedione as substrate after 1 hr by liquid scintillation counting; type: cell-based
SMILES,Activity (MCF7 [1]),Activity (MCF7 [2]),Activity (MCF7 [3]),Activity (MCF7 [4]),Activity (MCF7 [5]),Activity (MCF7 [6]),Activity (MCF7 [7]),inhibition at 2 µM (Aromatase [8]) [%],Activity (MCF7 [9]),Activity (MCF7 [10]),Activity (MCF7 [11]),IC50 (Aromatase [12]) [µM],inhibition at 10 µM (Aromatase [13]) [%],IC50 (Aromatase [14]) [µM]
C=C1C[C@H]2[C@@H]3CC[C@H](O)[C@@]3(C)CC[C@@H]2[C@@]2(C)C=CC(=O)C=C12,Dose-dependent effect,Active,Active,Active,inactive,inactive,tde,–,–,–,–,–,–,–
C=C1C[C@@H]2[C@H](CC[C@]3(C)C(=O)CC[C@@H]23)[C@]2(C)C1=CC(=O)[C@@H]1O[C@@H]12,Dose-dependent effect,<25%,–,–,–,–,–,86.8,Active,Active,tde,0.81,88.6,1.18
C[C@]12C=CC(=O)C=C1[C@@]1(CO1)C[C@@H]1[C@@H]2CC[C@]2(C)C(=O)CC[C@@H]12,Dose-dependent effect,Active,Active,–,inactive,inactive,tde,91.7,–,–,–,0.62,95.3,0.73
C[C@]12C=CC(=O)C=C1C(CO)=C[C@@H]1[C@@H]2CC[C@]2(C)C(=O)CC[C@@H]12,Dose-dependent effect,Active,Active,–,inactive,inactive,tde,81,–,–,–,0.67,84,0.98
